What was measured:
[1] = biological target: recombinant human FGFR1 catalytic domain (Homo sapiens (Human), UniProt P11362); assay: FGFR Enzyme Activity Assay (LanthaScreen TR-FRET), FGFR1; assay type: biochemical; settings: 15 μM ATP, 20 minutes incubation; read-out: FGFR1 Enz FRET IC50
Method: FGFR1 kinase activity was measured by the Invitrogen LanthaScreen™ Assay technology which directly measures the amount of substrate phosphorylation by Time-resolved fluorescence energy transfer (TR-FRET) using a flourescently-labeled peptide and Europium-labeled antibody. Briefly, 200 pM His-tagged recombinant human FGFR1 catalytic domain (amino acids 308-731) (Life Technologies Cat. No. PR4660A) was incubated with 100 nM Alexa Fluor® 647-Poly-GT Peptide Substrate (Life Technologies Cat. No. PV5836) and 15 μM ATP along with test compound in a buffer consisting of 250 mM HEPES, 25 mM MgCl2, 0.05% TritonX-100, pH 7.5, and 2% DMSO. Compounds were typically prepared in a threefold serial dilution in DMSO and added to the assay to give the appropriate final concentration. After a 20 minutes incubation at 22° C., an equal volume of 2 nM LanthaScreen® Eu-PY20 Antibody (Life Technologies Cat. No. PV5691) and 10 mM EDTA was added to quench the kinase reaction and start the detection reaction. After an additional 60 minute incubation at 22° C., the reaction was measured using a PerkinElmer EnVision multimode plate reader via TR-FRET dual wavelength detection, and the percent of control (POC) calculated using a ratiometric emission factor. 100 POC was determined using no test compounds and 0 POC was determined using no enzyme. The POC values were fit to a 4-parameter logistic curve as a function of the concentration of the compound, and the IC50 value is the point where the curve crosses 50 POC.

FGFR3 [2] = biological target: T1, FGFR3 (Homo sapiens (Human), UniProt P22607); assay: FGFR Enzyme Activity Assay (LanthaScreen TR-FRET), FGFR3; assay type: biochemical; settings: 25 μM ATP, 10 minute incubation; read-out: FGFR3 Enz FRET IC50
Method: FGFR3 kinase activity was measured by the Invitrogen LanthaScreen™ Assay technology which directly measures the amount of substrate phosphorylation by TR-FRET using a flourescently-labeled peptide and Europium-labeled antibody. Briefly, 750 pM N-terminal GST-HIS6 fusion protein with a 3C cleavage site recombinant human FGFR3 (amino acids R397-T806) (ProQinase Cat. No. 1068-0000-1) was incubated with 100 nM Alexa Fluor® 647-Poly-GT Peptide Substrate (Life Technologies Cat. No. PV5836) and 25 μM ATP along with test compound in a buffer consisting of 250 mM HEPES, 25 mM MgCl2, 0.05% TritonX-100, pH 7.5, and 2% DMSO. Compounds were typically prepared in a threefold serial dilution in DMSO and added to the assay to give the appropriate final concentration. After a 10 minute incubation at 22° C., an equal volume of 2 nM LanthaScreen® Eu-PY20 Antibody (Life Technologies Cat. No. PV5691) and 10 mM EDTA were added to quench the kinase reaction and start the detection reaction. After an additional 60 minute incubation at 22° C., the reaction was measured using a PerkinElmer EnVision multimode plate reader via TR-FRET dual wavelength detection, and the percent of control (POC) calculated using a ratiometric emission factor. 100 POC was determined using no test compounds and 0 POC was determined using no enzyme. The POC values were fit to a 4-parameter logistic curve as a function of the concentration of the compound, and the IC50 value is the point where the curve crosses 50 POC.
Target sequence in this assay (P22607 397-806): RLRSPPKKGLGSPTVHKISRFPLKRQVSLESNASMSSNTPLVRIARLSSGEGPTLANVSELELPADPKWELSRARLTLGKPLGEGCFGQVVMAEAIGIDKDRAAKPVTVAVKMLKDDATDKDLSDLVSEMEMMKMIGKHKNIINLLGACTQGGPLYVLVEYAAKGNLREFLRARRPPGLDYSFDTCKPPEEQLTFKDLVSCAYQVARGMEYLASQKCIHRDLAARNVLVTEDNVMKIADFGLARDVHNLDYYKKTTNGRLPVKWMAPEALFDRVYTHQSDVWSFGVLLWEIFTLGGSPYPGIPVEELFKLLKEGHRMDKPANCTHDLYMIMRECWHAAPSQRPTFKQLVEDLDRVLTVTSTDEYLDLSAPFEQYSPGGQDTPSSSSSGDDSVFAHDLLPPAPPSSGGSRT

FGFR1 = FGFR1 (Homo sapiens (Human), UniProt P11362); assay: LC/MS FGFR1 kobs assay (covalent modification); assay type: biochemical; settings: 500 nM FGFR1, 3 μM compound
Method: (§1) The LC/MS FGFR1 and FGFR3 kobs assays were conducted as follows. 500 nM FGFR1 (Array BioPharma construct p1702; SEQ ID NO: 1, amino acids 458-765) or FGFR3 (Array BioPharma construct p1700; SEQ ID NO: 5, amino acids 449-759) were incubated with 3 μM compound in 25 mM HEPES (4-(2-hydroxyethyl)-1-piperazineethanesulfonic acid), pH 7.4, 5 mM MgCl2, 150 mM NaCl, 0.5 mM TCEP (tris(2-carboxyethyl) phosphine), and 2% DMSO in a total volume of 20 μL. At each time point, the reaction was quenched with 20 μL of 0.4% formic acid. The extent of protein modification by each compound was determined by LC/MS on an Agilent Technologies 6520 Q-TOF LC/MS. Protein signals were then automatically deconvoluted using Agilent Masshunter software. Deconvoluted mass signals were exported to Tibco Spotfire data analysis program for further processing and normalization.
(§2) Data analysis included five steps. First, the signals for the “DMSO Controls” were analyzed to determine the percent of signal associated with unmodified FGFR1 or FGFR3 at each time point. Next, the percent of the signal associated with the covalent modification was determined. Third, the average nonmodified “DMSO Control” signal was used to normalize the modified protein signals at each time point. The percent of unmodified protein was fit to an exponential decay model where A0 is the Percent Unmodified at the start of the reaction, and kobs is the observed rate constant over the time period.

FGFR3 [3] = biological target: T1, FGFR3; assay: LC/MS FGFR3 kobs assay (covalent modification); assay type: biochemical; settings: 500 nM FGFR3, 3 μM compound
Method: as §1, §2
Target sequence in this assay (P22607 449-759): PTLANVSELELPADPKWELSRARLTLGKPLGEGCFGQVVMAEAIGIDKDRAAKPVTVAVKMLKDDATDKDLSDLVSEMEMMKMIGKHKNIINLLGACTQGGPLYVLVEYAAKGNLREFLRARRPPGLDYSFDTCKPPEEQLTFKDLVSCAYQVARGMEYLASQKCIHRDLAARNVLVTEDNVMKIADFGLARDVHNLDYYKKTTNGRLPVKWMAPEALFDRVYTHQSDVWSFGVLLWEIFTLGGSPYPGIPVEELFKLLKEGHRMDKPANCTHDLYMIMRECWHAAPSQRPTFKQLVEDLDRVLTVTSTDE

human wild type FGFR3 = human wild type FGFR3 (Homo sapiens (Human), UniProt P22607); assay: FGFR3 pERK Cell Assay; assay type: cell-based; settings: HEK-293 cells, 1 hour compound, 100 ng/ml human FGF-acidic; maximum concentration 5 μM
Method: HEK-293 cells transfected with dox-inducible human wild type FGFR3 (SEQ ID NO: 5) were plated in a collagen or poly-D-lysine coated 96 well flat bottom plates at 4×10^5 cells/well in complete DMEM medium containing 10% FBS and 1 μg/ml doxycycline and allowed to attach for 24 h at 37° C., 5% CO2. Cells were treated with compound using 1:3 serial dilutions with a maximum final concentration of 5 μM. Compound was incubated on cells for 1 hour at 37° C., 5% CO2. Cells were then stimulated with a final concentration of 100 ng/ml human FGF-acidic (R&D Systems Cat number 232-FA/CF) for 5 minutes at 37° C., 5% CO2. Medium was removed, and cells were lysed with lysis buffer containing phosphatase and protease inhibitors. Phospho ERK1/2 was measured using the Meso Scale Discovery sandwich assay (Meso Scale Discovery cat. no. K151DWD). The assay captures phospho ERK1/2 and detects with a sulfo-tagged total ERK1/2 antibody. The chemiluminescent signal was read on the Sector Imager Plate reader. 100 POC was determined using no test compounds and 0 POC was determined using a control compound. The POC values were fit to a 4-parameter logistic curve as a function of the concentration of the compound, and the IC50 value is the point where the curve crosses 50 POC.

Chain of FGFR1 (P11362 458-765): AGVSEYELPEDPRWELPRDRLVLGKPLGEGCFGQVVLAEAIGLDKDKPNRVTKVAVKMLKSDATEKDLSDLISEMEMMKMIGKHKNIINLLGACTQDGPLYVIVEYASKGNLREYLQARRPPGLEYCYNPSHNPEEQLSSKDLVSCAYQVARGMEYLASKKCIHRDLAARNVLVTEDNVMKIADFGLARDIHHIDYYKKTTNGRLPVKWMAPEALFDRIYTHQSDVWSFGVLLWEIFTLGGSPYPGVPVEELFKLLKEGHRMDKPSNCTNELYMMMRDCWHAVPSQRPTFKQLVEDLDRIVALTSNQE
Chain of recombinant human FGFR1 catalytic domain (P11362 other isoform, or with tags, fused parts or gaps): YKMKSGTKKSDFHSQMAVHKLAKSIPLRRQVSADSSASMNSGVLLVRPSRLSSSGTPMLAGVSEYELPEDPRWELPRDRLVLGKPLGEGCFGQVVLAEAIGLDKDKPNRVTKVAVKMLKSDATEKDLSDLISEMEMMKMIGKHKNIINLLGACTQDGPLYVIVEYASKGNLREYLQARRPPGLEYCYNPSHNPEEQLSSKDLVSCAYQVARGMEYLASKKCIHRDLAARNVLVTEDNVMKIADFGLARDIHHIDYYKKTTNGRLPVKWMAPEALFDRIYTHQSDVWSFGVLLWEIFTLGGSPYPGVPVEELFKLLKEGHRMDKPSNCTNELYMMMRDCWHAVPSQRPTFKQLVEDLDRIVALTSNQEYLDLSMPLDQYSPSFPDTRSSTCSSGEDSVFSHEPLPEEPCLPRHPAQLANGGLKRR
Chain of human wild type FGFR3 (P22607 23-806): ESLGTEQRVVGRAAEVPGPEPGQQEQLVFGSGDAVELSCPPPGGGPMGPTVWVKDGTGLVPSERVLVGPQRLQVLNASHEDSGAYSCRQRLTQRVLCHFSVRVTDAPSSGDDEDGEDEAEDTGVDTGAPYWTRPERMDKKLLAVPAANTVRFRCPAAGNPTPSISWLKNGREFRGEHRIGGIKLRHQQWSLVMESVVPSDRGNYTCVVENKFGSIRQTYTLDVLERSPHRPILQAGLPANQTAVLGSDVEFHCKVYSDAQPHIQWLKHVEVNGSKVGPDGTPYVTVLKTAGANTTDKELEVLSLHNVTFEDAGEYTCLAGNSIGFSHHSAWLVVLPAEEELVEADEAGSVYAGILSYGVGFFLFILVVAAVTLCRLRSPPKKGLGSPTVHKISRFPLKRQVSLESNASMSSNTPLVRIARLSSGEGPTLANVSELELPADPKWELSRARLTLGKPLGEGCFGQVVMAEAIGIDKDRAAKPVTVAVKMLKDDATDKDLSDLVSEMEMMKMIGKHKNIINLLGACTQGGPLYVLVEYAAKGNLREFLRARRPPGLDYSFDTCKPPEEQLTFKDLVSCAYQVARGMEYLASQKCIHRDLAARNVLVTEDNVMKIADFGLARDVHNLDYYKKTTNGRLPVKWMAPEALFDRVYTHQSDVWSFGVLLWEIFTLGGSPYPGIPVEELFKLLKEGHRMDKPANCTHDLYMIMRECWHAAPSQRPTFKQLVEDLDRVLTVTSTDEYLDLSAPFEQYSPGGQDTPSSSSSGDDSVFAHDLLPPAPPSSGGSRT

Row | Structure (SMILES) | IC50 [1] | IC50 (FGFR3 [2]) | FGFR1 Enz kobs (FGFR1) | FGFR3 Enz kobs (FGFR3 [3]) | IC50 (human wild type FGFR3)
1 | COc1cc(Nc2ccc3ncc(-c4cnn(C5CCN(C(=O)C6(F)CN(C(=O)/C=C/CN(C)C)C6)CC5)c4)nc3c2)cc(OC)c1 [Example 10, (E)-1-(3-(4-(4-(7-((3,5-dimethoxyphenyl)amino)-quinoxalin-2-yl)-1H-pyrazol-1-yl)piperidine-1-carbonyl)-3-fluoro-azetidin-1-yl)-4-(dimethylamino)but-2-en-1-one] | 0.035 µM | 0.016 µM | 0.01569 min⁻¹ | 0.09291 min⁻¹ | 0.014 µM
2 | COc1cc(Nc2ccc3ncc(-c4cnc(N5CCN(C(=O)C6(F)CN(C(=O)/C=C/CN(C)C)C6)CC5)cc4C)nc3c2)cc(OC)c1 [Example 14, (E)-1-(3-(4-(5-(7-((3,5-dimethoxyphenyl)amino)-quinoxalin-2-yl)-4-methylpyridin-2-yl)-piperazine-1-carbonyl)-3-fluoroazetidin-1-yl)-4-(dimethylamino)but-2-en-1-one] | 1.55 µM | 0.49 µM | 0.00326 min⁻¹ | 0.04226 min⁻¹ | 0.54 µM
3 | COc1cc(Nc2ccc3ncc(-c4ccc(N5CCN(C(=O)C6(F)CN(C(=O)/C=C/CN(C)C)C6)CC5)nc4)nc3c2)cc(OC)c1 [Example 7, (E)-1-(3-(4-(5-(7-((3,5-dimethoxyphenyl)amino)-quinoxalin-2-yl)pyridin-2-yl)piperazine-1-carbonyl)-3-fluoroazetidin-1-yl)-4-(dimethylamino)but-2-en-1-one] | 0.364 µM | 0.277 µM | 0.00659 min⁻¹ | 0.1309 min⁻¹ | 0.077 µM
4 | COc1cc(Nc2ccc3ncc(-c4ccc(N5CCN(C(=O)C6CN(C(=O)/C=C/CN(C)C)C6)CC5)nc4)nc3c2)cc(OC)c1 [Example 6, (E)-1-(3-(4-(5-(7-((3,5-dimethoxyphenyl)amino)-quinoxalin-2-yl)pyridin-2-yl)piperazine-1-carbonyl)azetidin-1-yl)-4-(dimethylamino)but-2-en-1-one] | 0.216 µM | 0.161 µM | 0.00259 min⁻¹ | 0.04816 min⁻¹ | 0.228 µM

Continued, values first:

Row | IC50 [1] | IC50 (FGFR3 [2]) | FGFR1 Enz kobs (FGFR1) | FGFR3 Enz kobs (FGFR3 [3]) | IC50 (human wild type FGFR3) | Structure (SMILES)
5 | 5 µM | 5 µM | 0.00154 min⁻¹ | 0.0172 min⁻¹ | 0.528 µM | C=CC(=O)N1CC(F)(C(=O)N2CCN(c3cc(C)c(-c4cnc5ccc(Nc6cc(OC)cc(OC)c6)cc5n4)cn3)CC2)C1 [Example 15, 1-(3-(4-(5-(7-((3,5-dimethoxyphenyl)amino)-quinoxalin-2-yl)-4-methylpyridin-2-yl)-piperazine-1-carbonyl)-3-fluoroazetidin-1-yl)prop-2-en-1-one]
6 | 0.048 µM | 0.018 µM | 0.00151 min⁻¹ | 0.01232 min⁻¹ | 0.397 µM | C=CC(=O)N1CC(C(=O)N2CC(n3cc(-c4cnc5ccc(Nc6cc(OC)cc(OC)c6)cc5n4)cn3)C2)C1 [Example 16, 1-(3-(3-(4-(7-((3,5-dimethoxyphenyl)amino)-quinoxalin-2-yl)-1H-pyrazol-1-yl)azetidine-1-carbonyl)azetidin-1-yl)-prop-2-en-1-one]
7 | 0.414 µM | 0.04 µM | 0.0025 min⁻¹ | 0.01671 min⁻¹ | 0.025 µM | C=CC(=O)N1CC(CN2CCC(n3cc(-c4cnc5ccc(Nc6cc(OC)cc(OC)c6)cc5n4)cn3)CC2)(OC)C1 [Example 29, 1-(3-((4-(4-(7-((3,5-dimethoxyphenyl)amino)quinoxalin-2-yl)-1H-pyrazol-1-yl)piperidin-1-yl)methyl)-3-methoxyazetidin-1-yl)prop-2-en-1-one]
8 | 1.21 µM | 0.373 µM | 0.00096 min⁻¹ | 0.01462 min⁻¹ | 0.216 µM | C=CC(=O)N1CC(C(=O)N2CCC(n3ncc(-c4cnc5ccc(Nc6cc(OC)cc(OC)c6)cc5n4)c3C)CC2)C1 [Example 18, 1-(3-(4-(4-(7-((3,5-dimethoxyphenyl)amino)-quinoxalin-2-yl)-5-methyl-1H-pyrazol-1-yl)piperi-dine-1-carbonyl)azetidin-1-yl)prop-2-en-1-one]

— US12351571B2, “Substituted quinoxaline compounds as inhibitors of FGFR tyrosine kinases” (ARRAY BIOPHARMA INC., priority 2018, dated 2025)
